pIC50: −log10 of the molar value.
Tested on: 521955-158-R2-J5-PDC complex spheroid growth
Assay: Anticancer human tumor 521955-158-R2-J5-PDC patient-derived pancreatic carcinoma cell line growth inhibition [AhR]
Conditions: for pIC50: curve of first compound; for viability, T/C: stronger effect = lower value
Text: Multicellular complex tumor spheroid response to aryl hydrocarbon receptor antagonists in combination with a variety of drugs and investigational agents in selected tumor cell lines
The current study was undertaken to assess response to aryl hydrocarbon receptor antagonists in combination with standard-of-care drugs and investigational agents in solid tumor complex spheroid models. Complex spheroids include a stromal component modeled by human endothelial cells (HUVEC) and fibroblasts modeled by human mesenchymal stem cells (MSCs). The concentration ranges selected for each drug and investigational agent were based upon clinically achievable concentrations if the clinical Cmax of the agent was known.
Compounds. The drugs and investigational agents: BAY 2416964 (NSC825713), GNF351 (NSC835774), CH-223191 (NSC835775), CPI-455 (NSC825282), aza-TdCyd (NSC777586), decitabine (NSC127716), belinostat (NSC758774), entinostat (NSC756642), pevonedistat (NSC761192), tazemetostat (NSC777109), talazoparib (NSC765396), olaparib (NSC753686), selinexor (NSC780203), nedisertib (M3814, NSC802822), bortezomib (NSC756655), venetoclax (NSC766270), doxorubicin (NSC123127), elimusertib (BAY189344, NSC800525), ceralasertib (AZD6738, NSC777638), TAK-243 (NSC785004), alisertib (NSC759677), etoposide (NSC141540), topotecan (NSC609699), eribulin (NSC707389), gemcitabine (NSC613327), carboplatin (NSC241240), cisplatin (NSC119875), and SN-38 (NSC673596) were obtained from the National Cancer Institute (NCI) Developmental Therapeutics Program Chemical Repository (32). The FDA-approved anticancer drug set is available from the Developmental Therapeutics Program at https://dtp.cancer.gov/organization/dscb/obtaining/available plates.htm. […] The stock solutions were prepared in dimethyl sulfoxide (DMSO, Sigma-Aldrich, St. Louis, MO, cat. D2650), except for the platinum compounds which were prepared in saline (Quality Biological, Gaithersburg, MD, cat. 114-055-101), at 800-fold the tested concentration and stored at -70 degrees C prior to their use. All drugs and investigational agents were tested over a range starting from a high concentration at or near the clinical Cmax and decreasing in half-log increments. If the clinical Cmax for an agent had not been determined, the highest concentration tested was 10 microM (Table 1).
Cell Culture. All cells were maintained in an incubator at 37 degrees C and 5% CO2 with 95% humidity. The PDC lines were cultured according to standard operating procedures established by the NCI PDMR (https://pdmr.cancer.gov). Briefly, all PDCs were thawed and cultured in Matrigel-coated flasks prepared with a working solution of 1X Ham's F-12 nutrient mix, without supplementation (Invitrogen, Waltham, MA, cat. 11765054), 100 U/mL penicillin-streptomycin (Invitrogen, cat. 15140122), and 2.5% Matrigel (Corning Inc., Corning, NY, cat. 354248) for the first three passages. All PDCs were cultured in complete DMEM/F-12 media containing advanced DMEM/F-12 (Invitrogen, cat. 12634028), 4.9% defined fetal bovine serum, heat inactivated (HyClone Laboratories Inc., Logan, UT, cat. SH30070.03HI), 389 ng/mL hydrocortisone (Sigma-Aldrich, cat. H4001), 9.7 ng/mL human EGF recombinant protein (Invitrogen, cat. PHG0313), 23.4 microg/mL adenine (Sigma-Aldrich, cat. A2786), 97.3 U/mL penicillin-streptomycin (Invitrogen, cat. 15140122), 1.9 mM L-glutamine (Invitrogen, cat. 25030081), and 9.7 microM Y-27632 dihydrochloride (Tocris Bioscience, Bristol, United Kingdom, cat. 1254). The PDCs were cultured in complete DMEM/F12 media without 10 microM Y-27632 dihydrochloride for at least two passages prior to the screen. The established cell lines NCI-H1341 and […] were cultured in DMEM/F-12, HEPES (Invitrogen, cat. 11330032), 5% defined fetal bovine serum (HyClone Laboratories Inc., cat. SH30070.03), ITS premix universal culture supplement [insulin (5 microg/mL), transferrin (5 microg/mL), and selenious acid (5 ng/mL)] […]

[1] = second compound 0.1 µM, first compound 0.00316 µM
[2] = second compound 0.1 µM, first compound 0.01 µM
[3] = second compound 0.1 µM, first compound 0.0316 µM
[4] = second compound 0.1 µM, first compound 0.1 µM
[5] = second compound 0.316 µM, first compound 0.00316 µM
[6] = second compound 0.316 µM, first compound 0.01 µM
[7] = second compound 0.316 µM, first compound 0.0316 µM
[8] = second compound 0.316 µM, first compound 0.1 µM
[9] = second compound 1 µM, first compound 0.00316 µM
[10] = second compound 1 µM, first compound 0.01 µM
[11] = second compound 1 µM, first compound 0.0316 µM
[12] = second compound 1 µM, first compound 0.1 µM
[13] = second compound 3.16 µM, first compound 0.00316 µM
[14] = second compound 3.16 µM, first compound 0.01 µM
[15] = second compound 3.16 µM, first compound 0.0316 µM
[16] = second compound 3.16 µM, first compound 0.1 µM
[17] = second compound 10 µM, first compound 0.00316 µM
[18] = second compound 10 µM, first compound 0.01 µM
[19] = second compound 10 µM, first compound 0.0316 µM
[20] = second compound 10 µM, first compound 0.1 µM
[21] = second compound 0.1 µM, first compound 0.316 µM
[22] = second compound 0.1 µM, first compound 1 µM
[23] = second compound 0.1 µM, first compound 3.16 µM
[24] = second compound 0.1 µM, first compound 10 µM
[25] = second compound 0.316 µM, first compound 0.316 µM
[26] = second compound 0.316 µM, first compound 1 µM
[27] = second compound 0.316 µM, first compound 3.16 µM
[28] = second compound 0.316 µM, first compound 10 µM
[29] = second compound 1 µM, first compound 0.316 µM
[30] = second compound 1 µM, first compound 1 µM
[31] = second compound 1 µM, first compound 3.16 µM
[32] = second compound 1 µM, first compound 10 µM
[33] = second compound 3.16 µM, first compound 0.316 µM
[34] = second compound 3.16 µM, first compound 1 µM
[35] = second compound 3.16 µM, first compound 3.16 µM
[36] = second compound 3.16 µM, first compound 10 µM
[37] = second compound 10 µM, first compound 0.316 µM
[38] = second compound 10 µM, first compound 1 µM
[39] = second compound 10 µM, first compound 3.16 µM
[40] = second compound 10 µM, first compound 10 µM
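Throughout, for viability, T/C: spheroids mix tumor cells with HUVEC endothelium and human MSC stroma; luminescence taken as viability surrogate after a week of drug exposure.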

Row | pIC50 (second compound 0.1 µM) | pIC50 (second compound 0.316 µM) | pIC50 (second compound 1 µM) | pIC50 (second compound 3.16 µM) | pIC50 (second compound 10 µM) | SMILES | viability, T/C [3] [%] | viability, T/C [4] [%] | viability, T/C [7] [%] | viability, T/C [8] [%] | viability, T/C [11] [%] | viability, T/C [12] [%] | viability, T/C [15] [%] | viability, T/C [16] [%] | viability, T/C [19] [%] | viability, T/C [20] [%] | viability, T/C [21] [%] | viability, T/C [22] [%] | viability, T/C [25] [%] | viability, T/C [26] [%] | viability, T/C [29] [%] | also measured
1 | 7.49 | 7.44 | 7.55 | 7.66 | 7.70 | CC[C@@]1(O)C(=O)OCc2c1cc1n(c2=O)Cc2cc3c(CN(C)C)c(O)ccc3nc2-1 + CC(CO)NC(=O)c1cc(-c2ccc(Cl)cc2)nn(-c2cnn(C)c2)c1=O | 51.8 | 16 | 57.4 | 13.3 | 46.1 | 20.1 | 38.3 | 19.2 | 35.3 | 17.9 |  |  |  |  |  | viability, T/C (second compound 0.1 µM, first compound 0.000316 µM): 99.8%; viability, T/C (second compound 0.1 µM, first compound 0.001 µM): 91.6%; viability, T/C [1]: 110%; viability, T/C [2]: 82.5%; viability, T/C (second compound 0.316 µM, first compound 0.000316 µM): 112%; viability, T/C (second compound 0.316 µM, first compound 0.001 µM): 109%; viability, T/C [5]: 89.8%; viability, T/C [6]: 82.5%; viability, T/C (second compound 1 µM, first compound 0.000316 µM): 93%; viability, T/C (second compound 1 µM, first compound 0.001 µM): 104%; viability, T/C [9]: 106%; viability, T/C [10]: 86.5%; viability, T/C (second compound 3.16 µM, first compound 0.000316 µM): 99.2%; viability, T/C (second compound 3.16 µM, first compound 0.001 µM): 102%; viability, T/C [13]: 91.8%; viability, T/C [14]: 75.4%; viability, T/C (second compound 10 µM, first compound 0.000316 µM): 76.5%; viability, T/C (second compound 10 µM, first compound 0.001 µM): 86.3%; viability, T/C [17]: 85.6%; viability, T/C [18]: 71.6%
2 | 5.97 | 5.94 | 6.04 | 6.16 | 6.37 | COc1cc(C2c3cc4c(cc3C(OC3OC5COC(C)OC5C(O)C3O)C3COC(=O)C23)OCO4)cc(OC)c1O (stereo not given) + CC(CO)NC(=O)c1cc(-c2ccc(Cl)cc2)nn(-c2cnn(C)c2)c1=O | 85 | 78 | 92.3 | 102 | 98 | 98.3 | 93.5 | 87.5 | 76.3 | 71.4 | 91.8 | 51.4 | 87.5 | 53.4 | 95.7 | viability, T/C [23]: 29.3%; viability, T/C [24]: 17%; viability, T/C [27]: 25.5%; viability, T/C [28]: 16.6%; viability, T/C [30]: 46.1%; viability, T/C [31]: 24.5%; viability, T/C [32]: 20.6%; viability, T/C [33]: 91.9%; viability, T/C [34]: 31.4%; viability, T/C [35]: 23.6%; viability, T/C [36]: 22.8%; viability, T/C [37]: 55.3%; viability, T/C [38]: 33.3%; viability, T/C [39]: 20.4%; viability, T/C [40]: 14.2%
3 | > 7.50 | 7.30 | 7.27 | > 7.50 | 7.41 | COc1cccc2c1C(=O)c1c(O)c3c(c(O)c1C2=O)CC(O)(C(=O)CO)CC3OC1CC(N)C(O)C(C)O1 (stereo not given) + CC(CO)NC(=O)c1cc(-c2ccc(Cl)cc2)nn(-c2cnn(C)c2)c1=O | 49.1 | 45.1 | 54.6 | 42.6 | 56.4 | 41.7 | 50.7 | 41.8 | 52.9 | 37 | 28 | 2.42 | 24.5 | 2.21 | 24.1 | viability, T/C [23]: 7.75%; viability, T/C [24]: 13.9%; viability, T/C [27]: 5.07%; viability, T/C [28]: 13.4%; viability, T/C [30]: 9.29%; viability, T/C [31]: 2.9%; viability, T/C [32]: 14.6%; viability, T/C [33]: 25.8%; viability, T/C [34]: 8.77%; viability, T/C [35]: 7.63%; viability, T/C [36]: 14%; viability, T/C [37]: 18.7%; viability, T/C [38]: 6.31%; viability, T/C [39]: 6.29%; viability, T/C [40]: 13.8%
4 | 6.21 | 6.19 | < 6.00 | 6.10 | < 6.00 | Nc1ncn(C2CC(O)C(CO)O2)c(=O)n1 (stereo not given) + CC(CO)NC(=O)c1cc(-c2ccc(Cl)cc2)nn(-c2cnn(C)c2)c1=O | 106 | 70.9 | 107 | 70.8 | 120 | 78.6 | 87.3 | 87.1 | 74.1 | 80.2 | 67.9 | 40.1 | 68.1 | 41.2 | 67.8 | viability, T/C [1]: 113%; viability, T/C [2]: 105%; viability, T/C [5]: 97.2%; viability, T/C [6]: 107%; viability, T/C [9]: 111%; viability, T/C [10]: 85.7%; viability, T/C [30]: 50.8%; viability, T/C [13]: 98.2%; viability, T/C [14]: 95.2%; viability, T/C [33]: 64.7%; viability, T/C [34]: 46.4%; viability, T/C [17]: 83.3%; viability, T/C [18]: 87%; viability, T/C [37]: 62.4%; viability, T/C [38]: 51%
